Measurements reported in patent US10611750B2, “Tetrahydroquinoline compositions as bet bromodomain inhibitors” (FORMA Therapeutics, Inc., priority 2013, dated 2020).

Columns and labels:
[1] = biological target: T1, BRD4 Bromodomain 1 (BRD4 BD1) (Homo sapiens, UniProt O60885); test: AlphaScreen binding assay, BRD4 BD1; details: His-tagged BRD4 BD1 50 nM, biotinylated H4 (1-21) K5/8/12/16 tetra-acetylated peptide 50 nM, compounds listed under IC50 range headings
T1 construct: 44-168 and BRD4 BD2
Summary of the method: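 An AlphaScreen competition format was used with His-BRD4 BD1 or BD2 and biotin-H4 K5/8/12/16-acetyl peptide, each at matched final levels of 50 nM (BD1) or 100 nM (BD2). Incubation in HEPES/NaCl buffer with 0.1% BSA and 0.01% Triton X-100 ran ≥1 h before IC50 determination.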

[2] = tested on: acute myelocytic leukemia (AML) cell line MV4-11; test: Oncology cell growth assay (3-day proliferation, CellTiter-Glo); type: cell-based; details: Homo sapiens, MV4-11, 72 h, MV4-11 cells, 3000 cells/well, compounds listed under IC50 range headings, read-out: MV411 IC50 (gIC50, inhibition of proliferation)
Summary of the method: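 MV4-11 AML cells (RPMI 1640, 10% FBS) plated at 3000 cells/well and exposed 72 h to compound at final 10 to 0.0045 μM (3-fold series). Viability read by CellTiter-Glo luminescence; gIC50 from four-parameter logistic fit between DMSO control and no-cell background.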

Row | Compound | IC50 [1] [nM] | IC50 [2] [nM]
1 | C[C@H]1CCc2c(ccc(-c3cnn(C4CS(=O)(=O)C4)c3)c2OC2CCC2)N1C(=O)C1CC1 [I-509] | 100 to 1000 | < 500
2 | COc1cccc(Oc2c(-c3cnn(C4CCNCC4)c3)ccc3c2CC[C@H](C)N3C(C)=O)n1 [I-336, (S)-1-(5-(6-methoxypyridin-2-yloxy)-2-methyl-6-(1-(piperidin-4-yl)-1H-pyrazol-4-yl)-3,4-dihydroquinolin-1 (2H)-yl)ethanone] | 100 to 1000 | < 500
3 | C[C@H]1CCc2c(ccc(-c3cnn(C4CCOCC4)c3)c2OC2CCC2)N1C(=O)C1CC1 [I-507] | 100 to 1000 | 500 to 1000
4 | C[C@H]1CCc2c(ccc(-c3cnn4c3N(S(C)(=O)=O)CC4)c2OC2CCC2)N1C(=O)C1CC1 [I-279, ((2S)-5-cyclobutoxy-2-methyl-6-(1-(methylsulfonyl)-2,3-dihydro-1H-pyrazolo[1,5-a]imidazol-7-yl)-3,4-dihydroquinolin-1 (2H)-yl)(cyclopropyl)methanone] | 1000 to 10000 | > 1000
5 | COC(=O)N1c2ccc(-c3cnn(C4CCNCC4)c3)c(Oc3ccc(F)c(F)c3)c2CC[C@@H]1C [I-176, (S)-methyl 5-(3,4-difluorophenoxy)-2-methyl-6-(1-(piperidin-4-yl)-1H-pyrazol-4-yl)-3,4-dihydroquinoline-1(2H)-carboxylate] | 100 to 1000 | < 500
6 | C[C@H]1CCc2c(ccc(-c3cnn(C4CCNCC4)c3)c2Oc2ccc(F)cc2F)N1C(=O)C1CC1 [I-264, (S)-cyclopropyl (5-(2,4-difluorophenoxy)-2-methyl-6-(1-(piperidin-4-yl)-1H-pyrazol-4-yl)-3,4-dihydroquinolin-1 (2H)-yl)methanone] | 100 to 1000 | < 500
7 | C[C@H]1CCc2c(OC3CCC3)c(-c3cnn(C4CCNCC4)c3)cc(F)c2N1C(=O)C1CC1 [I-103, (S)-(5-cyclobutoxy-8-fluoro-2-methyl-6-(1-(piperidin-4-yl)-1H-pyrazol-4-yl)-3,4-dihydroquinolin-1(2H)-yl)(cyclopropyl)methanone] | 100 to 1000 | < 500
8 | C[C@H]1CCc2c(ccc(-c3cnn(C4CNC4)c3)c2Oc2ccccc2)N1C(=O)C1CC1 [I-175, (S)-(6-(1-(azetidin-3-yl)-1H-pyrazol-4-yl)-2-methyl-5-phenoxy-3,4-dihydroquinolin-1(2H)-yl)(cyclopropyl)methanone] | 100 to 1000 | < 500
9 | C[C@H]1CCc2c(ccc(-c3cnoc3)c2Oc2ccccc2)N1C(=O)C1CC1 [I-231, (S)-cyclopropyl(6-(isoxazol-4-yl)-2-methyl-5-phenoxy-3,4-dihydroquinolin-1 (2H)-yl)methanone] | 1000 to 10000 | < 500
10 | COC(=O)N1c2ccc(-c3csc(C4(OC)CNC4)n3)c(OC3CCC3)c2CC[C@@H]1C [I-350, (S)-methyl 5-cyclobutoxy-6-(2-(3-methoxyazetidin-3-yl)thiazol-4-yl)-2-methyl-3,4-dihydroquinoline-1(2H)-carboxylate] | 1000 to 10000 | > 1000
11 | C[C@H]1CCc2c(ccc(-c3cn(C)nn3)c2Oc2ccc(F)cc2)N1C(=O)C1CC1 [I-236, (S)-cyclopropyl(5-(4-fluorophenoxy)-2-methyl-6-(1-methyl-1H-1,2,3-triazol-4-yl)-3,4-dihydroquinolin-1 (2H)-yl)methanone] | 100 to 1000 | < 500
12 | COC(=O)N1c2ccc(-c3cnn(C4CCNC(=O)C4)c3)c(OC3CCC3)c2CC[C@@H]1C (stereo partly drawn) [I-296, (2S)-methyl 5-cyclobutoxy-2-methyl-6-(1-(2-oxopiperidin-4-yl)-1H-pyrazol-4-yl)-3,4-dihydroquinoline-1(2H)-carboxylate] | 100 to 1000 | < 500
13 | C[C@H]1CCc2c(ccc(-c3ccn[nH]3)c2OC2CCC2)N1C(=O)C1CC1 [I-56, (S)-(5-cyclobutoxy-2-methyl-6-(1H-pyrazol-5-yl)-3,4-dihydroquinolin-1(2H)-yl)(cyclopropyl)methanone] | 1000 to 10000 | 500 to 1000
14 | C[C@H]1CCc2c(ccc(-n3cccn3)c2OC2CCC2)N1C(=O)C1CC1 [I-324, (S)-(5-cyclobutoxy-2-methyl-6-(1H-pyrazol-1-yl)-3,4-dihydroquinolin-1(2H)-yl)(cyclopropyl)methanone] | ≥ 10000 | > 1000
15 | COC(=O)N1c2ccc(-c3cnn(C4CC(O)C4)c3)c(OC3CCC3)c2CC[C@@H]1C (stereo partly drawn) [I-302, (S)-methyl 5-cyclobutoxy-6-(1-(3-hydroxycyclobutyl)-1H-pyrazol-4-yl)-2-methyl-3,4-dihydroquinoline-1(2H)-carboxylate] | 100 to 1000 | < 500
16 | C[C@H]1CCc2c(ccc(-c3cnn(C4CCNCC4)c3)c2Oc2cccc(C#N)c2)N1C(=O)C1CC1 [I-202, (S)-3-(1-(cyclopropanecarbonyl)-2-methyl-6-(1-(piperidin-4-yl)-1H-pyrazol-4-yl)-1,2,3,4-tetrahydroquinolin-5-yloxy)benzonitrile] | 100 to 1000 | < 500
17 | COC(=O)N1c2ccc(-c3cnn([C@@H]4CCNC[C@H]4F)c3)c(OC3CCC3)c2CC[C@@H]1C [I-367, methyl (2S)-5-cyclobutoxy-6-{1-[(3R,4R)-3-fluoropiperidin-4-yl]-1H-pyrazol-4-yl}-2-methyl-1,2,3,4-tetrahydroquinoline-1-carboxylate] | 100 to 1000 | < 500
18 | COC(=O)N1c2c(F)cc(-c3cn(C)nn3)c(OC3CCC3)c2CC[C@@H]1C [I-125, (S)-methyl 5-cyclobutoxy-8-fluoro-2-methyl-6-(1-methyl-1H-1,2,3-triazol-4-yl)-3,4-dihydroquinoline-1(2H)-carboxylate] | 1000 to 10000 | > 1000
19 | C[C@H]1CCc2c(ccc(-c3cnn(C4CCCS(=O)(=O)C4)c3)c2OC2CCC2)N1C(=O)C1CC1 (stereo partly drawn) [I-508] | 100 to 1000 | < 500

Results, then the compound that gave them:

Row | IC50 [1] [nM] | IC50 [2] [nM] | Compound
20 | 1000 to 10000 | < 500 | COC(=O)N1c2c(F)cc(-c3cnn(C4CC4)c3)c(Oc3ccccc3)c2CC[C@@H]1C [I-239, (S)-methyl 6-(1-cyclopropyl-1H-pyrazol-4-yl)-8-fluoro-2-methyl-5-phenoxy-3,4-dihydroquinoline-1(2H)-carboxylate]
21 | 100 to 1000 | < 500 | COC(=O)N1c2ccc(-c3cnn([C@@H]4CCNC[C@H]4F)c3)c(Oc3ccc(F)cc3)c2CC[C@@H]1C [I-368, methyl (2S)-5-(4-fluorophenoxy)-6-{1-[(3R,4R)-3-fluoropiperidin-4-yl]-1H-pyrazol-4-yl}-2-methyl-1,2,3,4-tetrahydroquinoline-1-carboxylate]
22 | 1000 to 10000 | > 1000 | COC(=O)N1c2ccc(-n3cc(N4CCNCC4)cn3)c(Oc3ccccc3)c2CC[C@@H]1C [I-340, (S)-methyl 2-methyl-5-phenoxy-6-(4-(piperazin-1-yl)-1H-pyrazol-1-yl)-3,4-dihydroquinoline-1(2H)-carboxylate]
23 | 100 to 1000 | < 500 | CC(=O)N1c2c(F)cc(-c3cn[nH]c3)c(Oc3ccccc3)c2CC[C@@H]1C [I-242, (S)-1-(8-fluoro-2-methyl-5-phenoxy-6-(1H-pyrazol-4-yl)-3,4-dihydroquinolin-1(2H)-yl)ethanone]
24 | ≥ 10000 | > 1000 | C[C@H]1CCc2c(ccc(-c3ccnn3C3CCNCC3)c2Oc2ccccc2)N1C(=O)C1CC1 [I-308, cyclopropyl((2S)-2-methyl-5-phenoxy-6-(1-(piperidin-4-yl)-1H-pyrazol-5-yl)-3,4-dihydroquinolin-1(2H)-yl)methanone]
25 | 100 to 1000 | < 500 | COc1ccc(Oc2c(-c3cnn(C4CCNCC4)c3)ccc3c2CC[C@H](C)N3C(=O)C2CC2)cc1 [I-196, (S)-cyclopropyl(5-(4-methoxyphenoxy)-2-methyl-6-(1-(piperidin-4-yl)-1H-pyrazol-4-yl)-3,4-dihydroquinolin-1(2H)-yl)methanone]
26 | 100 to 1000 | < 500 | C[C@H]1CCc2c(ccc(-c3cnn(C4CCNCC4)c3)c2Oc2ccc(F)c(F)c2)N1C(=O)C1CC1 [I-172, (S)-cyclopropyl(5-(3,4-difluorophenoxy)-2-methyl-6-(1-(piperidin-4-yl)-1H-pyrazol-4-yl)-3,4-dihydroquinolin-1(2H)-yl)methanone]
27 | 1000 to 10000 | > 1000 | C[C@H]1CCc2c(ccc(-n3cc(N4CCNCC4)cn3)c2Oc2ccccc2)N1C(=O)C1CC1 [I-337, (S)-cyclopropyl(2-methyl-5-phenoxy-6-(4-(piperazin-1-yl)-1H-pyrazol-1-yl)-3,4-dihydroquinolin-1(2H)-yl)methanone]
28 | 100 to 1000 | < 500 | C[C@H]1CCc2c(ccc(-c3cnn(C4CNC4)c3)c2Oc2cccc(Cl)c2)N1C(=O)C1CC1 [I-178, (S)-(6-(1-(azetidin-3-yl)-1H-pyrazol-4-yl)-5-(3-chlorophenoxy)-2-methyl-3,4-dihydroquinolin-1 (2H)-yl)(cyclopropyl)methanone]
29 | 100 to 1000 | < 500 | COC(=O)N1c2c(F)cc(-c3cn[nH]c3)c(Oc3ccccc3)c2CC[C@@H]1C [I-240, (S)-methyl 8-fluoro-2-methyl-5-phenoxy-6-(1H-pyrazol-4-yl)-3,4-dihydroquinoline-1(2H)-carboxylate]
30 | 100 to 1000 | < 500 | C[C@H]1CCc2c(ccc(-c3cnn(C4CNC4)c3)c2Oc2cc(F)ccc2F)N1C(=O)C1CC1 [I-272, (S)-(6-(1-(azetidin-3-yl)-1H-pyrazol-4-yl)-5-(2,5-difluorophenoxy)-2-methyl-3,4-dihydroquinolin-1(2H)-yl)(cyclopropyl)methanone]
